Assay results as given in US10287269B2, “Pyrazolyl pyrimidinone compounds as PDE2 inhibitors” (Merck Sharp & Dohme Corp., priority 2015, dated 2019).

Target: T1, human PDE2A1 (Homo sapiens, UniProt O00408)
T1 construct: GST; purchased BPS Bioscience (San Diego, Calif.) 60020; host or cells: insect cells
Assay: PDE2 IMAP FP inhibition assay, human enzyme (PDE selectivity panel format)
Type: biochemical
Settings: Lab A; read-out: Human PDE2 Ki (nM) Lab A
Procedure: Selectivity for PDE2, as compared to other PDE families, was assessed using the IMAP® technology. Human PDE10A2 enzyme was prepared from cytosolic fractions of transiently transfected HEK cells. All other PDE's were GST Tag human enzyme expressed in insect cells and were obtained from BPS Bioscience (San Diego, Calif.): PDE1A (Cat#60010), human PDE2A1 (Cat#60020), PDE3A (Cat#60030), PDE4A1A (Cat#60040), PDE5A1 (Cat#60050), PDE6C (Cat#60060), PDE7A (Cat#60070), PDE8A1 (Cat#60080), PDE9A2 (Cat#60090), PDE11A4 (Cat#60110).
Assays for PDE 1 through 11 were performed in parallel at room temperature in 384-well microtiter plates with an incubation volume of 20.2 μL. Solutions of test compounds were prepared in DMSO and serially diluted with DMSO to yield 30 μL of each of ten solutions differing by 3-fold in concentration, at 32 serial dilutions per plate. […] A Labcyte POD 810 (Labcyte, Sunnyvale, Calif.) was used to dispense 200 nL from each well of the titration plate to make eleven copies of the assay plate for each titration, one copy for each PDE enzyme. A solution of each enzyme (dilution from aliquots, sufficient to produce 20% substrate conversion) and a separate solution of FAM-labeled cAMP or FAM-labeled cGMP from Molecular Devices (Sunnyvale, Calif., product # R7506 or cGMP#R7508), at a final concentration of 50 nM were made in the assay buffer (10 mM Tris HCl, pH 7.2, 10 mM MgCl2, 0.05% NaN3 0.01% Tween-20, and 1 mM DTT). Note that the substrate for PDE2 is 50 nM FAM cAMP containing 1000 nM of cGMP. The enzyme and the substrate were then added to the assay plates in two consecutive additions of 10 μL and then shaken to mix. The reaction was allowed to proceed at room temperature for 60 minutes. A binding solution was then made from the kit components, comprised of 80% Solution A, 20% Solution B and binding reagent at a volume of 1/600 the total binding solution. The enzymatic reaction was stopped by addition of 60 μL of the binding solution to each well of the assay plate. The plates were sealed and shaken for 10 seconds. The plates were incubated at room temperature for one hour, then the parallel and perpendicular fluorescence was measured using a Tecan Genios Pro plate reader (Tecan, Switzerland). The apparent inhibition constants for the compounds against all 11 PDE's was determined from the parallel and perpendicular fluorescent readings as described for PDE10 FP assay using the following apparent KM values for each enzyme and substrate combination: PDE1A (FAM cGMP) 70 nM, human PDE2A1 (FAM cAMP) 10,000 nM, PDE3A (FAM cAMP) 50 nM, PDE4A1A (FAM cAMP) 1500 nM, PDE5A1 (FAM cGMP) 400 nM, PDE6C (FAM cGMP) 700 nM, PDE7A (FAM cAMP) 150 nM, PDE8A1 (FAM cAMP) 50 nM, PDE9A2 (FAM cGMP) 60 nM, PDE10A2 (FAM cAMP) 150 nM, PDE11A4 (FAM cAMP) 1000 nM. The intrinsic PDE2 inhibitory activity of a compound which may be used in accordance with the present invention may be determined by these assays. […]

T1 sequence (O00408 1-920 isoform O00408-2): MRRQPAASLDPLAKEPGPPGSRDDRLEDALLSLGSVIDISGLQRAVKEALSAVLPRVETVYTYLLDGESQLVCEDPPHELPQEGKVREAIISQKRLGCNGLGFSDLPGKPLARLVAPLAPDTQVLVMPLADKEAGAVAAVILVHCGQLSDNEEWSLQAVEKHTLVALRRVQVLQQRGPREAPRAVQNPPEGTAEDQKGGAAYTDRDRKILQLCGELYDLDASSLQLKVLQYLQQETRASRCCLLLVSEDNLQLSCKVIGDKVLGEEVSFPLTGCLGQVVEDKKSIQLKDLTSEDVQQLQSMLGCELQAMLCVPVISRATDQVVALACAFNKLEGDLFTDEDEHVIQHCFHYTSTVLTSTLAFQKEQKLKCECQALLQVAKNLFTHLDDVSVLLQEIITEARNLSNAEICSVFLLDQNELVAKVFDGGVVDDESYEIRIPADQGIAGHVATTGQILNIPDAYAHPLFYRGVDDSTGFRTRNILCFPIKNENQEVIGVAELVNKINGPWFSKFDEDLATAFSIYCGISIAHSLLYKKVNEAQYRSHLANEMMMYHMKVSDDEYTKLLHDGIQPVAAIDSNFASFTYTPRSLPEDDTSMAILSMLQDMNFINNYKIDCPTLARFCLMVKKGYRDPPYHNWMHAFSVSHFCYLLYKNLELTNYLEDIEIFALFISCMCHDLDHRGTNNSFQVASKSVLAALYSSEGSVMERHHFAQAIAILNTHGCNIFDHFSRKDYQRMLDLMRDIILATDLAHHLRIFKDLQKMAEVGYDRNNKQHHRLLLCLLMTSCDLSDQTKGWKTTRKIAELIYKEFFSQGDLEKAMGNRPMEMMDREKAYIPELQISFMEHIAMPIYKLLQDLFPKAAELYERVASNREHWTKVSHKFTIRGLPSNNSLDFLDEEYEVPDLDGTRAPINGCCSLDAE

Row | Ki [nM] | Structure (SMILES)
1 | 126 | Cc1nc(-c2cnn([C@H](C)c3c(F)cc(C(F)(F)F)cc3F)c2)cc(=O)[nH]1 (single isomer, unassigned) [Example 7]
2 | 107 | Cc1nc(-c2cnn([C@H](C)c3c(F)cc(C(F)(F)F)cc3F)c2)cc(=O)[nH]1 (single isomer, unassigned) [Example 8]
3 | 42.5 | CCc1ccc([C@](C)(O)c2cnn(-c3cc(=O)[nH]c(C)n3)c2)c(F)c1 (single isomer, unassigned) [Example 11]
4 | 244 | CCc1ccc([C@](C)(O)c2cnn(-c3cc(=O)[nH]c(C)n3)c2)c(F)c1 (single isomer, unassigned) [Example 12]
5 | 287 | CCCc1ccc([C@](C)(O)c2cnn(-c3cc(=O)[nH]c(C)n3)c2)c(F)c1 (single isomer, unassigned) [Example 13]
6 | 1400 | CCCc1ccc([C@](C)(O)c2cnn(-c3cc(=O)[nH]c(C)n3)c2)c(F)c1 (single isomer, unassigned) [Example 14]
7 | 683 | CCc1ccc([C@@H](CO)n2cc(-c3cc(=O)[nH]c(C)n3)cn2)c(Cl)c1 (single isomer, unassigned) [Example 17]
8 | 10.7 | CCc1ccc([C@@H](CO)n2cc(-c3cc(=O)[nH]c(C)n3)cn2)c(Cl)c1 (single isomer, unassigned) [Example 18]
9 | 32.6 | Cc1nc(-c2cn(C(C)c3ccc(C(F)(F)F)cc3F)nc2C)cc(=O)[nH]1 (single isomer, unassigned) [Example 69, (R)- or (S)-(6-(1-(1-(2-fluoro-4-(trifluoromethyl)phenyl)ethyl)-3-methyl-1H-pyrazol-4-yl)-2-methylpyrimidin-4(3H)-one]
10 | 312 | Cc1nc(-c2cn(C(C)c3ccc(C(F)(F)F)cc3F)nc2C)cc(=O)[nH]1 (single isomer, unassigned) [Example 70, (S)- or (R)-(6-(1-(1-(2-fluoro-4-(trifluoromethyl)phenyl)ethyl)-3-methyl-1H-pyrazol-4-yl)-2-methylpyrimidin-4(3H)-one]
11 | 16.5 | Cc1nc(-c2cnn(C(C)c3ccc(C(F)(F)F)cc3F)c2C)cc(=O)[nH]1 (single isomer, unassigned) [Example 71, (R)- or (S)-6-(1-(1-(2-fluoro-4-(trifluoromethyl)phenyl)ethyl)-5-methyl-1H-pyrazol-4-yl)-2-methylpyrimidin-4(3H)-one]
12 | 412 | Cc1nc(-c2cnn(C(C)c3ccc(C(F)(F)F)cc3F)c2C)cc(=O)[nH]1 (single isomer, unassigned) [Example 72, (S)- or (R)-6-(1-(1-(2-fluoro-4-(trifluoromethyl)phenyl)ethyl)-5-methyl-1H-pyrazol-4-yl)-2-methylpyrimidin-4(3H)-one]
13 | > 2960 | Cc1nc(-c2cnn(C(C)c3ccc(CC(F)(F)F)cc3C)c2)cc(=O)[nH]1 (single isomer, unassigned) [Example 105, (R)- or (S)-2-methyl-6-(1-(1-(2-methyl-4-(2,2,2-trifluoroethyl)phenyl)ethyl)-1H-pyrazol-4-yl)pyrimidin-4(3H)-one]
14 | 710 | Cc1nc(-c2cnn(C(C)c3ccc(CC(F)(F)F)cc3C)c2)cc(=O)[nH]1 (single isomer, unassigned) [Example 106, (S)- or (R)-2-methyl-6-(1-(1-(2-methyl-4-(2,2,2-trifluoroethyl)phenyl)ethyl)-1H-pyrazol-4-yl)pyrimidin-4(3H)-one]
15 | 9.4 | Cc1nc(-c2cnn(C(C)c3ccc(C4CC4)cc3Cl)c2)cc(=O)[nH]1 (single isomer, unassigned) [Example 107, (R)- or (S)-6-(1-(1-(2-chloro-4-cyclopropylphenyl)ethyl)-1H-pyrazol-4-yl)-2-methylpyrimidin-4(3H)-one]
16 | 358 | Cc1nc(-c2cnn(C(C)c3ccc(C4CC4)cc3Cl)c2)cc(=O)[nH]1 (single isomer, unassigned) [Example 108, (S)- or (R)-6-(1-(1-(2-chloro-4-cyclopropylphenyl)ethyl)-1H-pyrazol-4-yl)-2-methylpyrimidin-4(3H)-one]
17 | 27.5 | Cc1nc(-c2cnn(C(CO)c3ccc(C(F)(F)F)cc3F)c2)cc(=O)[nH]1 (single isomer, unassigned) [Example 109, (R)- or (S)-6-(1-(1-(2-fluoro-4-(trifluoromethyl)phenyl)-2-hydroxyethyl)-1H-pyrazol-4-yl)-2-methylpyrimidin-4(3H)-one]
18 | 299 | Cc1nc(-c2cnn(C(CO)c3ccc(C(F)(F)F)cc3F)c2)cc(=O)[nH]1 (single isomer, unassigned) [Example 110, (S)- or (R)-6-(1-(1-(2-fluoro-4-(trifluoromethyl)phenyl)-2-hydroxyethyl)-1H-pyrazol-4-yl)-2-methylpyrimidin-4(3H)-one]
19 | 42.5 | CCc1ccc(C(CO)n2cc(-c3cc(=O)[nH]c(C)n3)cn2)c(F)c1 (single isomer, unassigned) [Example 111, (R)- or (S)-6-(1-(1-(4-ethyl-2-fluorophenyl)-2-hydroxyethyl)-1H-pyrazol-4-yl)-2-methylpyrimidin-4(3H)-one]
20 | 438 | CCc1ccc(C(CO)n2cc(-c3cc(=O)[nH]c(C)n3)cn2)c(F)c1 (single isomer, unassigned) [Example 112, (S)- or (R)-6-(1-(1-(4-ethyl-2-fluorophenyl)-2-hydroxyethyl)-1H-pyrazol-4-yl)-2-methylpyrimidin-4(3H)-one]
21 | 163 | CCc1ccc(C(CO)c2cnn(-c3cc(=O)[nH]c(C)n3)c2)c(F)c1 (single isomer, unassigned) [Example 115, (R)- or (S)-6-(4-(1-(4-ethyl-2-fluorophenyl)-2-hydroxyethyl)-1H-pyrazol-1-yl)-2-methylpyrimidin-4(3H)-one]
22 | 537 | CCc1ccc(C(CO)c2cnn(-c3cc(=O)[nH]c(C)n3)c2)c(F)c1 (single isomer, unassigned) [Example 116, (S)- or (R)-6-(4-(1-(4-ethyl-2-fluorophenyl)-2-hydroxyethyl)-1H-pyrazol-1-yl)-2-methylpyrimidin-4(3H)-one]
23 | 4.4 | Cc1nc(-n2cc(C(C)(O)c3ccc(C(F)(F)F)cc3Cl)cn2)cc(=O)[nH]1 (single isomer, unassigned) [Example 117, (R)- or (S)-6-(4-(1-(2-chloro-4-(trifluoromethyl)phenyl)-1-hydroxyethyl)-1H-pyrazol-1-yl)-2-methylpyrimidin-4(3H)-one]
24 | 47.8 | Cc1nc(-n2cc(C(C)(O)c3ccc(C(F)(F)F)cc3Cl)cn2)cc(=O)[nH]1 (single isomer, unassigned) [Example 118, (S)- or (R)-6-(4-(1-(2-chloro-4-(trifluoromethyl)phenyl)-1-hydroxyethyl)-1H-pyrazol-1-yl)-2-methylpyrimidin-4(3H)-one]
25 | 321 | CCc1ccc(C(CO)c2cnn(-c3cc(=O)[nH]c(C)n3)c2)c(Cl)c1 (single isomer, unassigned) [Example 120, (R)- or (S)-6-(4-(1-(2-chloro-4-ethylphenyl)-2-hydroxyethyl)-1H-pyrazol-1-yl)-2-methylpyrimidin-4(3H)-one]
26 | 8.4 | CCc1ccc(C(CO)c2cnn(-c3cc(=O)[nH]c(C)n3)c2)c(Cl)c1 (single isomer, unassigned) [Example 121, (S)- or (R)-6-(4-(1-(2-chloro-4-ethylphenyl)-2-hydroxyethyl)-1H-pyrazol-1-yl)-2-methylpyrimidin-4(3H)-one]
27 | 616 | Cc1nc(-c2cnn(C(CO)c3ccc(C(F)(F)F)cc3Cl)c2)cc(=O)[nH]1 (single isomer, unassigned) [Example 122, (R)- or (S)-6-(1-(1-(2-chloro-4-(trifluoromethyl)phenyl)-2-hydroxyethyl)-1H-pyrazol-4-yl)-2-methylpyrimidin-4(3H)-one]
